Experimental data reported in PubChem BioAssay AID1963873 (Molecular Pharmacology Branch, DTP, NCI, 2024).

Tested on: 276233-004-R-J1-PDC KRAS spheroids with HUVEC/MSC, viability
Experiment: Anticancer human tumor 276233-004-R-J1-PDC patient-derived colon adenocarcinoma cell line growth inhibition [KRAS2]
Details: for IC50: curve of first compound; for viability, T/C: stronger effect = lower value
Summary of the method: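 Combination screen of spheroid viability in tumor-cell co-cultures with endothelial (HUVEC) and mesenchymal stem cell stroma. Each agent was tested in half-log dilutions, topping at clinical Cmax or at 10 microM without a known Cmax.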

[1] = second compound 0.0316 µM, first compound 0.000316 µM
[2] = second compound 0.0316 µM, first compound 0.001 µM
[3] = second compound 0.0316 µM, first compound 0.00316 µM
[4] = second compound 0.0316 µM, first compound 0.01 µM
[5] = second compound 0.0316 µM, first compound 0.0316 µM
[6] = second compound 0.0316 µM, first compound 0.1 µM
[7] = second compound 0.1 µM, first compound 0.000316 µM
[8] = second compound 0.1 µM, first compound 0.001 µM
[9] = second compound 0.1 µM, first compound 0.00316 µM
[10] = second compound 0.1 µM, first compound 0.01 µM
[11] = second compound 0.1 µM, first compound 0.0316 µM
[12] = second compound 0.1 µM, first compound 0.1 µM
[13] = second compound 0.316 µM, first compound 0.000316 µM
[14] = second compound 0.316 µM, first compound 0.001 µM
[15] = second compound 0.316 µM, first compound 0.00316 µM
[16] = second compound 0.316 µM, first compound 0.01 µM
[17] = second compound 0.316 µM, first compound 0.0316 µM
[18] = second compound 0.316 µM, first compound 0.1 µM
[19] = second compound 1 µM, first compound 0.000316 µM
[20] = second compound 1 µM, first compound 0.001 µM
[21] = second compound 1 µM, first compound 0.00316 µM
[22] = second compound 1 µM, first compound 0.01 µM
[23] = second compound 1 µM, first compound 0.0316 µM
[24] = second compound 1 µM, first compound 0.1 µM
[25] = second compound 3.16 µM, first compound 0.000316 µM
[26] = second compound 3.16 µM, first compound 0.001 µM
[27] = second compound 3.16 µM, first compound 0.00316 µM
[28] = second compound 3.16 µM, first compound 0.01 µM
[29] = second compound 3.16 µM, first compound 0.0316 µM
[30] = second compound 3.16 µM, first compound 0.1 µM
[31] = second compound 0.1 µM, first compound 0.316 µM
[32] = second compound 0.1 µM, first compound 1 µM
[33] = second compound 0.1 µM, first compound 3.16 µM
[34] = second compound 0.316 µM, first compound 0.316 µM
[35] = second compound 0.316 µM, first compound 1 µM
[36] = second compound 0.316 µM, first compound 3.16 µM
[37] = second compound 1 µM, first compound 0.316 µM
[38] = second compound 1 µM, first compound 1 µM
[39] = second compound 1 µM, first compound 3.16 µM
[40] = second compound 3.16 µM, first compound 0.316 µM
[41] = second compound 3.16 µM, first compound 1 µM
[42] = second compound 3.16 µM, first compound 3.16 µM
[43] = second compound 10 µM, first compound 0.01 µM
[44] = second compound 10 µM, first compound 0.0316 µM
[45] = second compound 10 µM, first compound 0.1 µM
[46] = second compound 10 µM, first compound 0.316 µM
[47] = second compound 10 µM, first compound 1 µM
[48] = second compound 10 µM, first compound 3.16 µM
[49] = second compound 0.1 µM, first compound 10 µM
[50] = second compound 0.316 µM, first compound 10 µM
[51] = second compound 1 µM, first compound 10 µM
[52] = second compound 3.16 µM, first compound 10 µM
[53] = second compound 10 µM, first compound 10 µM
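Note: cells exposed to agents for seven days before viability read.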
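Throughout, for viability, T/C: 100% = DMSO vehicle control wells and lower values mean fewer viable cells.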

CN(C)C/C=C/C(=O)Nc1cc2c(Nc3ccc(F)c(Cl)c3)ncnc2cc1O[C@H]1CCOC1 + C=CC(=O)N1CCN(c2nc(OCC3CCCN3C)nc3c2CCN(c2cccc4cccc(C)c24)C3)CC1CC#N
IC50 (second compound 0.0316 µM): > 0.1 µM
IC50 (second compound 0.1 µM): > 0.1 µM
IC50 (second compound 0.316 µM): > 0.1 µM
IC50 (second compound 1 µM): > 0.1 µM
IC50 (second compound 3.16 µM): 0.000902 µM
viability, T/C [1]: 112%
viability, T/C [2]: 114%
viability, T/C [3]: 91.3%
viability, T/C [4]: 102%
viability, T/C [5]: 97.4%
viability, T/C [6]: 86.3%
viability, T/C [7]: 116%
viability, T/C [8]: 93.8%
viability, T/C [9]: 91.3%
viability, T/C [10]: 85%
viability, T/C [11]: 88%
viability, T/C [12]: 85.7%
viability, T/C [13]: 87%
viability, T/C [14]: 110%
viability, T/C [15]: 91.9%
viability, T/C [16]: 78.3%
viability, T/C [17]: 81.5%
viability, T/C [18]: 72.2%
viability, T/C [19]: 84.8%
viability, T/C [20]: 78.8%
viability, T/C [21]: 70.5%
viability, T/C [22]: 83.6%
viability, T/C [23]: 84.2%
viability, T/C [24]: 78.7%
viability, T/C [25]: 67.5%
viability, T/C [26]: 52.7%
viability, T/C [27]: 37.8%
viability, T/C [28]: 27.6%
viability, T/C [29]: 53.2%
viability, T/C [30]: 47.7%

CC(=O)OC12COC1CC(O)C1(C)C(=O)C(O)C3=C(C)C(OC(=O)C(O)C(NC(=O)OC(C)(C)C)c4ccccc4)CC(O)(C(OC(=O)c4ccccc4)C21)C3(C)C (stereo not given) + C=CC(=O)N1CCN(c2nc(=O)n(-c3c(C)ccnc3C(C)C)c3nc(-c4c(O)cccc4F)c(F)cc23)C(C)C1
IC50 (second compound 0.1 µM): > 3.16 µM
IC50 (second compound 0.316 µM): > 3.16 µM
IC50 (second compound 1 µM): > 3.16 µM
IC50 (second compound 3.16 µM): > 3.16 µM
IC50 (second compound 10 µM): > 3.16 µM
viability, T/C [10]: 87%
viability, T/C [11]: 96.5%
viability, T/C [12]: 80.4%
viability, T/C [31]: 77.4%
viability, T/C [32]: 86.3%
viability, T/C [33]: 97.8%
viability, T/C [16]: 100%
viability, T/C [17]: 109%
viability, T/C [18]: 79.4%
viability, T/C [34]: 70.5%
viability, T/C [35]: 90.1%
viability, T/C [36]: 89.5%
viability, T/C [22]: 90.7%
viability, T/C [23]: 85.3%
viability, T/C [24]: 71.6%
viability, T/C [37]: 75%
viability, T/C [38]: 88%
viability, T/C [39]: 99.2%
viability, T/C [28]: 95.5%
viability, T/C [29]: 84.9%
viability, T/C [30]: 77.8%
viability, T/C [40]: 92.8%
viability, T/C [41]: 79.5%
viability, T/C [42]: 90.2%
viability, T/C [43]: 79.2%
viability, T/C [44]: 72.2%
viability, T/C [45]: 97.6%
viability, T/C [46]: 64.2%
viability, T/C [47]: 103%
viability, T/C [48]: 129%

O=C(c1cc(Cc2n[nH]c(=O)c3ccccc23)ccc1F)N1CCN(C(=O)C2CC2)CC1 + CNCc1ccccc1-c1csc(C(C)Nc2nc(C)nc3cc(OC)c(OC)cc23)c1
IC50 (second compound 0.1 µM): > 10 µM
IC50 (second compound 0.316 µM): > 10 µM
IC50 (second compound 1 µM): > 10 µM
IC50 (second compound 3.16 µM): < 0.0316 µM
IC50 (second compound 10 µM): < 0.0316 µM
viability, T/C [11]: 98.5%
viability, T/C [12]: 99.5%
viability, T/C [31]: 84.5%
viability, T/C [32]: 87.5%
viability, T/C [33]: 110%
viability, T/C [49]: 96.5%
viability, T/C [17]: 103%
viability, T/C [18]: 80.8%
viability, T/C [34]: 90.3%
viability, T/C [35]: 85.3%
viability, T/C [36]: 84%
viability, T/C [50]: 68.7%
viability, T/C [23]: 99.2%
viability, T/C [24]: 86.8%
viability, T/C [37]: 88.5%
viability, T/C [38]: 73.8%
viability, T/C [39]: 87.1%
viability, T/C [51]: 78.2%
viability, T/C [29]: 5.86%
viability, T/C [30]: 1.28%
viability, T/C [40]: 0.99%
viability, T/C [41]: 1.9%
viability, T/C [42]: 1.8%
viability, T/C [52]: 2.47%
viability, T/C [44]: 3.64%
viability, T/C [45]: 5.22%
viability, T/C [46]: 3.94%
viability, T/C [47]: 5.16%
viability, T/C [48]: 0.77%
viability, T/C [53]: 1.05%

COC(=O)c1ccc2c(C(=Nc3ccc(N(C)C(=O)CN4CCN(C)CC4)cc3)c3ccccc3)c(O)[nH]c2c1 + C=CC(=O)N1CCN(c2nc(=O)n(-c3c(C)ccnc3C(C)C)c3nc(-c4c(O)cccc4F)c(F)cc23)C(C)C1
IC50 (second compound 0.1 µM): > 10 µM
IC50 (second compound 0.316 µM): > 10 µM
IC50 (second compound 1 µM): > 10 µM
IC50 (second compound 3.16 µM): > 10 µM
IC50 (second compound 10 µM): 3.36 µM
viability, T/C [11]: 104%
viability, T/C [12]: 72.4%
viability, T/C [31]: 71.5%
viability, T/C [32]: 92.8%
viability, T/C [33]: 91.8%
viability, T/C [49]: 97.2%
viability, T/C [17]: 105%
viability, T/C [18]: 80.5%
viability, T/C [34]: 90%
viability, T/C [35]: 83%
viability, T/C [36]: 91.1%
viability, T/C [50]: 92.3%
viability, T/C [23]: 106%
viability, T/C [24]: 87.5%
viability, T/C [37]: 64.8%
viability, T/C [38]: 96.7%
viability, T/C [39]: 96%
viability, T/C [51]: 88.3%
viability, T/C [29]: 93.9%
viability, T/C [30]: 78.1%
viability, T/C [40]: 81.1%
viability, T/C [41]: 63.3%
viability, T/C [42]: 89.5%
viability, T/C [52]: 95.5%
viability, T/C [44]: 78.2%
viability, T/C [45]: 73.2%
viability, T/C [46]: 61.2%
viability, T/C [47]: 82.2%
viability, T/C [48]: 51.8%
viability, T/C [53]: 16.8%

CC1COCCN1c1cc(-c2ccnn2C)c2ccnc(-c3ccn[nH]3)c2n1 (stereo not given) + CC1OCC2(CCN(c3cnc(Sc4ccnc(N)c4Cl)c(N)n3)CC2)C1N
IC50 (second compound 0.1 µM): > 3.16 µM
IC50 (second compound 0.316 µM): 2.18 µM
IC50 (second compound 1 µM): 2.83 µM
IC50 (second compound 3.16 µM): 0.632 µM
IC50 (second compound 10 µM): 0.737 µM
viability, T/C [10]: 107%
viability, T/C [11]: 96%
viability, T/C [12]: 78.3%
viability, T/C [31]: 86.2%
viability, T/C [32]: 60.9%
viability, T/C [33]: 56.1%
viability, T/C [16]: 76.9%
viability, T/C [17]: 106%
viability, T/C [18]: 84.8%
viability, T/C [34]: 74.6%
viability, T/C [35]: 61.1%
viability, T/C [36]: 45%
viability, T/C [22]: 87.7%
viability, T/C [23]: 73.2%
viability, T/C [24]: 67.9%
viability, T/C [37]: 68.5%
viability, T/C [38]: 57.4%
viability, T/C [39]: 47.5%
viability, T/C [28]: 64.1%
viability, T/C [29]: 86.2%
viability, T/C [30]: 64.8%
viability, T/C [40]: 57%
viability, T/C [41]: 46.8%
viability, T/C [42]: 40.7%
viability, T/C [43]: 61.1%
viability, T/C [44]: 66.4%
viability, T/C [45]: 56.6%
viability, T/C [46]: 49.2%
viability, T/C [47]: 52.9%
viability, T/C [48]: 41.1%

CC(C)n1nc(-c2ccc3oc(N)nc3c2)c2c(N)ncnc21 + C=CC(=O)N1CCN(c2nc(OCC3CCCN3C)nc3c2CCN(c2cccc4cccc(C)c24)C3)CC1CC#N
IC50 (second compound 0.0316 µM): > 0.1 µM
IC50 (second compound 0.1 µM): > 0.1 µM
IC50 (second compound 0.316 µM): > 0.1 µM
IC50 (second compound 1 µM): > 0.1 µM
IC50 (second compound 3.16 µM): 0.0458 µM
viability, T/C [1]: 88.4%
viability, T/C [2]: 143%
viability, T/C [3]: 83%
viability, T/C [4]: 85.3%
viability, T/C [5]: 63.2%
viability, T/C [6]: 57.4%
viability, T/C [7]: 95.8%
viability, T/C [8]: 85.6%
viability, T/C [9]: 80.9%
viability, T/C [10]: 62.8%
viability, T/C [11]: 63.2%
viability, T/C [12]: 55.6%
viability, T/C [13]: 85.9%
viability, T/C [14]: 90.2%
viability, T/C [15]: 87.6%
viability, T/C [16]: 62.9%
viability, T/C [17]: 56.4%
viability, T/C [18]: 52.8%
viability, T/C [19]: 82.8%
viability, T/C [20]: 110%
viability, T/C [21]: 81.2%
viability, T/C [22]: 70.9%
viability, T/C [23]: 65.5%
viability, T/C [24]: 70.1%
viability, T/C [25]: 72.6%
viability, T/C [26]: 55.3%
viability, T/C [27]: 69.8%
viability, T/C [28]: 75.6%
viability, T/C [29]: 65.8%
viability, T/C [30]: 16.1%
